Reference: patent US20120316157A1, “PLANT DISEASE CONTROLLING COMPOSITION AND METHOD FOR CONTROLLING PLANT DISEASE” (SUMITOMO CHEMICAL COMPANY, LIMITED, priority 2010, published 2012)

system: gray mold fungus (Botrytis cinerea); test: Cucumber leaf disk preventive test against gray mold fungus (Test Examples 1, 2 and Reference Example); assay type: in vivo; settings: Botrytis cinerea, foliar, 96 h, heterocyclic compound alone, 0.5 ppm, 15° C., four days, read-out: preventive value (%)
Method: True leaf of cucumber is punched out with cork borer to 13 mm in diameter to prepare a leaf disk. In 24 well microwell plate that is dispensed with 1 ml 0.8% water agar, the leaf disk is placed such that the upper side of the leaf is in an upward direction. Thereto is added 20 micro liter a testing solution prepared by mixing a dimethyl sulfoxide solution of the present compound (racemate) and a dimethyl sulfoxide solution of ferimzone or oxolinic acid to a predetermined concentration to treat the leaf disk.
After confirming that the testing medical solution is dried, conidium of gray mold fungus (Botrytis cinerea) is suspended into potato dextrose broth (DIFCO) in a density of about 10^5 conidium/mL and is then subjected to a spray inoculation. After leaving to stand the leaf disk in a growth chamber set up at 15° C. for four days, an onset area on the leaf is measured and then calculated an onset area rate (hereinafter, referred to as an onset area rate of treated group).
The same operation is carried out with 20 micro liter water instead of 20 micro liter a testing medicine solution to calculate an onset area rate (hereinafter, referred to an onset area rate of non-treated group).
A preventive value is calculated from the above onset area rate of treated group and the onset area rate of non-treated group by the following equation:
Preventive value(%)=100×(A−B)/A
A: an onset area rate of treated group
B: an onset area rate of non-treated group
The same operations as described in Test Example 1 are carried out with fenamidone, acibenzolar-5-methyl, amisulbrom, dazomet, diclomezine, famoxadone, fenoxanil, probenazole, proquinazid, pyroquilon, quinoxyfen, tricyclazole, isoprothiolane or tiadinil instead of ferimzone or oxolinic acid, so as to calculate respective preventive values.
Also for comparison, the same operations as described in Test Example 1 are carried out with the exception that the testing medicine solution is substituted with a predetermined concentration of each dimethyl sulfoxide solution of the present compound (racemate), fenamidone, acibenzolar-5-methyl, amisulbrom, dazomet, diclomezine, famoxadone, fenoxanil, probenazole, proquinazid, pyroquilon, quinoxyfen, tricyclazole, isoprothiolane, or tiadinil, so as to calculate respective preventive values.
For comparison, the same operations as described in Test Example 1 are carried out with the exception that the testing medicine solution is substituted with a predetermined concentration of each dimethyl sulfoxide solution of ferimzone or oxolinic acid, so as to calculate a preventive value.

| SMILES | pest or weed control at 0.5 ppm |
| --- | --- |
| C[C@@]1(c2ccc(Oc3ccccc3)cc2)OC(=O)N(Nc2ccccc2)C1=O (racemic) [famoxadone] | 10% |
| Cc1c(Cl)cc(-c2ccc(=O)[nH]n2)cc1Cl [diclomezine] | 10% |
| Cc1ccc(NC(=O)c2snnc2C)cc1Cl [tiadinil] | 10% |
| Cc1cccc2sc3nncn3c12 [tricyclazole] | 10% |
| C=CCOC1=NS(=O)(=O)c2ccccc21 [probenazole] | 10% |
| CSC1=N[C@@](C)(c2ccccc2)C(=O)N1Nc1ccccc1 [fenamidone] | 5% |
| Fc1ccc(Oc2ccnc3cc(Cl)cc(Cl)c23)cc1 [quinoxyfen] | 10% |

same assay, conditions: Botrytis cinerea, foliar, 96 h, heterocyclic compound alone, 5.0 ppm, 15° C., four days, read-out: preventive value (%)

| SMILES | pest or weed control at 5 ppm |
| --- | --- |
| C[C@@]1(c2ccc(Oc3ccccc3)cc2)OC(=O)N(Nc2ccccc2)C1=O (racemic) [famoxadone] | 15% |
| Cc1c(Cl)cc(-c2ccc(=O)[nH]n2)cc1Cl [diclomezine] | 15% |
| Cc1ccc(NC(=O)c2snnc2C)cc1Cl [tiadinil] | 25% |
| Cc1cccc2sc3nncn3c12 [tricyclazole] | 15% |
| C=CCOC1=NS(=O)(=O)c2ccccc21 [probenazole] | 25% |
| CSC1=N[C@@](C)(c2ccccc2)C(=O)N1Nc1ccccc1 [fenamidone] | 10% |
| Fc1ccc(Oc2ccnc3cc(Cl)cc(Cl)c23)cc1 [quinoxyfen] | 15% |

same assay, conditions: Botrytis cinerea, foliar, 96 h, read-out: preventive value (%), heterocyclic compound alone, 0.5 ppm, 15° C., four days

| SMILES | pest or weed control at 0.5 ppm |
| --- | --- |
| CC(C)OC(=O)C(C(=O)OC(C)C)=C1SCCS1 [isoprothiolane] | 10% |
| CN1CSC(=S)N(C)C1 [dazomet] | 10% |
| C/C(=N/Nc1nc(C)cc(C)n1)c1ccccc1C [ferimzone] | 10% |
| O=C1CCc2cccc3c2N1CC3 [pyroquilon] | 10% |

same assay, conditions: Botrytis cinerea, foliar, 96 h, read-out: preventive value (%), heterocyclic compound alone, 5.0 ppm, 15° C., four days

| SMILES | pest or weed control at 5 ppm |
| --- | --- |
| CC(C)OC(=O)C(C(=O)OC(C)C)=C1SCCS1 [isoprothiolane] | 15% |
| CN1CSC(=S)N(C)C1 [dazomet] | 20% |
| C/C(=N/Nc1nc(C)cc(C)n1)c1ccccc1C [ferimzone] | 15% |
| O=C1CCc2cccc3c2N1CC3 [pyroquilon] | 15% |

same assay, conditions: Botrytis cinerea, foliar, 96 h, the present amide compound alone, 1.0 ppm, 15° C., four days

| SMILES | pest or weed control at 1 ppm |
| --- | --- |
| CNC(=O)C(OC)c1ccccc1COc1cc(C)ccc1C (racemic) [the present amide compound] | 46% |

same assay, conditions: Botrytis cinerea, foliar, 96 h, the present amide compound alone, 2.5 ppm, 15° C., four days

| SMILES | pest or weed control at 2.5 ppm |
| --- | --- |
| CNC(=O)C(OC)c1ccccc1COc1cc(C)ccc1C (racemic) [the present amide compound] | 56% |

same assay, conditions: heterocyclic compound alone, 0.5 ppm, 15° C., four days

| SMILES | preventive value (%) |
| --- | --- |
| CCCOc1nc2ccc(I)cc2c(=O)n1CCC [proquinazid] | 10% |
| CC(Oc1ccc(Cl)cc1Cl)C(=O)NC(C)(C#N)C(C)C (centres unmarked) [fenoxanil] | 10% |
| Cc1c(Br)c2ccc(F)cc2n1S(=O)(=O)c1ncn(S(=O)(=O)N(C)C)n1 [amisulbrom] | 10% |
| CSC(=O)c1cccc2nnsc12 [acibenzolar-S-methyl] | 15% |

same assay, conditions: heterocyclic compound alone, 5.0 ppm, 15° C., four days

| SMILES | preventive value (%) |
| --- | --- |
| CCCOc1nc2ccc(I)cc2c(=O)n1CCC [proquinazid] | 15% |
| CC(Oc1ccc(Cl)cc1Cl)C(=O)NC(C)(C#N)C(C)C (centres unmarked) [fenoxanil] | 15% |
| Cc1c(Br)c2ccc(F)cc2n1S(=O)(=O)c1ncn(S(=O)(=O)N(C)C)n1 [amisulbrom] | 15% |
| CSC(=O)c1cccc2nnsc12 [acibenzolar-S-methyl] | 25% |
